Laboratory results as given in patent US20230138851A1, “NOVEL ALKYNE DERIVATIVES” (CARNA BIOSCIENCES, INC., priority 2020, published 2023).

Columns and labels:
Format in all cases: biochemical
DYRK2 = molecular target: T1, DYRK2 (Homo sapiens, UniProt Q92630); assay: Inhibition test on activity of DYRK family, mobility shift assay (MSA), DYRK2; settings: ATP 40 μM, FITC-labeled DYRKtide peptide substrate, room temperature 1 hour; for IC50: read-out: Inhibitory Activity 2 (IC50 against DYRK2)
T1 construct: purchased Carna Biosciences, Inc. 04-132
T1 sequence (Q92630 1-601): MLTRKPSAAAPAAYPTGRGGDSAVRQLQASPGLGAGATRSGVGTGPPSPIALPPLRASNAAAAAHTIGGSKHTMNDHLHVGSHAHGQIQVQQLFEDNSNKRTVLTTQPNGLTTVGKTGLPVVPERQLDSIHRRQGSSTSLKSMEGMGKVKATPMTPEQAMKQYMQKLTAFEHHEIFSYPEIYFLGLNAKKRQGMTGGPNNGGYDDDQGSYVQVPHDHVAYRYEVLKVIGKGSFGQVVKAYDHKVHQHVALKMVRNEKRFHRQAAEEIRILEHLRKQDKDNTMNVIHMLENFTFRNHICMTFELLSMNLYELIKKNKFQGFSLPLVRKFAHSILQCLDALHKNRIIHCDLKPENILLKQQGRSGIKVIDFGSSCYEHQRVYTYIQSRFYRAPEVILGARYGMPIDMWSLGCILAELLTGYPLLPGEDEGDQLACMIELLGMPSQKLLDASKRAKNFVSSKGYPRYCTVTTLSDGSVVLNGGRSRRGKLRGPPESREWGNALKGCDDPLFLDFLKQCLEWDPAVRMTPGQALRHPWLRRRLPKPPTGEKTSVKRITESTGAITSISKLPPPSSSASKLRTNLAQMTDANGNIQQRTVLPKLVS
Method: (§1) [Inhibition Test on Activity of DYRK Family (DYRK1A, DYRK1B, DYRK2, and […])]
(§2) (Method for Measuring Kinase Activity)
(§3) The kinase activity was measured by mobility shift assay (MSA) method using QuickScout Screening Assist™ MSA (commercially available kit manufactured by Carna Biosciences, Inc.). The substrate of the kinase reaction used was an FITC-labeled DYRKtide peptide included in the kit. An assay buffer [20 mM HEPES, 0.01% Triton X-100™, 2 mM dithiothreitol, pH 7.5] was used to create a substrate mixture solution with a substrate (4 μM), MgCl2 (20 mM), and ATP (DYRK1A: 100 μM; DYRK1B: 200 μM; DYRK2: 40 μM; and DYRK3: 20 μM). In addition, kinases (DYRK1A: manufactured by Carna Biosciences, Inc., Cat. No. 04-130; DYRK1B: manufactured by Carna Biosciences, Inc., Cat. No. 04-131; DYRK2; manufactured by Carna Biosciences, Inc., Cat. No. 04-132; and DYRK3; manufactured by Carna Biosciences, Inc., Cat. No. 04-133) were diluted with the assay buffer to prepare enzyme solutions (DYRK1A: 0.2 ng/μL; DYRK1B: 0.08 ng/μL; DYRK2: 0.04 ng/μL; and DYRK3: 0.25 ng/μL). The 10 mM solution of the test compound in DMSO was further diluted with DMSO to 10 levels of the concentration (0.00003 mM, 0.0001 mM, 0.0003 mM, 0.001 mM, 0.003 mM, 0.01 mM, 0.03 mM, 0.1 mM, 0.3 mM, and 1 mM), each of which was subjected to 25-fold dilution with the assay buffer to obtain a drug solution (4% DMSO solution). 5 μL of the drug solution or a control solution (4% DMSO-assay buffer), 5 μL of the substrate mixture solution, and 10 μL of the enzyme solution were mixed in the wells of a polypropylene 384-well plate and allowed to react at room temperature for 1 hour, and then the reaction was quenched by adding 60 μL of the termination buffer included in the kit. Subsequently, the quantities of the substrates (S) and the phosphorylated substrate (P) in the reaction solution were measured using LabChip EZ Reader II system (manufactured by Caliper Life Sciences) according to the protocol of the assay kit.
(§4) (Method for Evaluating Inhibitory Activity)
(§5) The heights of the peaks of the “substrate” and the “phosphorylated substrate” were expressed as S and P, respectively, and a blank containing the assay buffer instead of the enzyme solution was also measured.
(§6) The inhibition rate (%) of the test compound was calculated according to the following equation:
(§7) Inhibition rate (%)=(1−(C−A)/(B−A))×100
(§8) wherein, A, B, and C represent P/(P+S) of the blank well, P/(P+S) of the control solution well, and P/(P+S) of the compound-containing well, respectively.
(§9) The IC50 value was calculated via a regression analysis of the inhibition rate and the test compound concentration (logarithmic value).
(§10) The inhibiting activities of representative compounds of the present invention are shown against DYRK1A, DYRK1B, DYRK2, and DYRK3 in Tables 7 and 8. The kinase activity inhibitory effect was indicated with the mark *** at an IC50 value of less than 0.01 μM; the mark ** at 0.01 μM or more and less than 0.1 μM; the mark * at 0.1 μM or more and less than 1 μM; and the mark — at 1 μM or more (N.D. indicates not measured).

DYRK3 = molecular target: T2, DYRK3 (Homo sapiens, UniProt O43781); assay: Inhibition test on activity of DYRK family, mobility shift assay (MSA), DYRK3; settings: ATP 20 μM, FITC-labeled DYRKtide peptide substrate, room temperature 1 hour; for IC50: read-out: Inhibitory Activity 3 (IC50 against DYRK3)
T2 construct: purchased Carna Biosciences, Inc. 04-133
T2 sequence (O43781 1-588): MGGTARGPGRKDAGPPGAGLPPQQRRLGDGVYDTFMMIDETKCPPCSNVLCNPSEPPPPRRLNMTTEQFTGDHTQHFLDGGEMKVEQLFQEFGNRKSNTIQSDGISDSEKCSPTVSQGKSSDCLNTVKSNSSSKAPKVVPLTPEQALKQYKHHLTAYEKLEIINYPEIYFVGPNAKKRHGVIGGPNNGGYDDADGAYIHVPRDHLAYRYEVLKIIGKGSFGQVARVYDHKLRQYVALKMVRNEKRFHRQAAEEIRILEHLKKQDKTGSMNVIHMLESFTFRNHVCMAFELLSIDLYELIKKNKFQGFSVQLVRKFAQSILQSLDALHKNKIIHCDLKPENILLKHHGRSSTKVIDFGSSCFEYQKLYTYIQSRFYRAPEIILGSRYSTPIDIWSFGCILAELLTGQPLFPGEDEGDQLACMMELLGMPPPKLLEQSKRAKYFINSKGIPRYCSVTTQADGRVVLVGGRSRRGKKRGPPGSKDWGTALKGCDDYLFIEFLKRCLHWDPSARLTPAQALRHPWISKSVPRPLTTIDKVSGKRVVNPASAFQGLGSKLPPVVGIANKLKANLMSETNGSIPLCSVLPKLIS
Method: as §1, §2, §3, §4, §5, §6, §7, §8, §9, §10

DYRK1A = molecular target: T3, DYRK1A (Homo sapiens, UniProt Q13627); assay: Inhibition test on activity of DYRK family, mobility shift assay (MSA), DYRK1A; settings: ATP 100 μM, FITC-labeled DYRKtide peptide substrate, room temperature 1 hour; for IC50: read-out: Inhibitory Activity 1a (IC50 against DYRK1A)
T3 construct: purchased Carna Biosciences, Inc. 04-130
Method: as §1, §2, §3, §4, §5, §6, §7, §8, §9, §10

| SMILES | Inhibitory Activity 2 (IC50 against DYRK2) (DYRK2) | Inhibitory Activity 3 (IC50 against DYRK3) (DYRK3) | Inhibitory Activity 1a (IC50 against DYRK1A) (DYRK1A) | IC50 (DYRK2) [nM] | IC50 (DYRK3) [nM] | IC50 (DYRK1A) [nM] |
| --- | --- | --- | --- | --- | --- | --- |
| CC#CC1CNC(=O)N1c1nc2c3c(ccc2s1)OCC3 (single isomer, unassigned) [Example 9, 1-(7,8-dihydrobenzofuro[4,5-d]thiazol-2-yl)-5-(prop-1-yn-1-yl)imidazolidin-2-one] | * * | * * | * * * |  |  |  |
| CC#CC1CNC(=O)N1c1nc2c3c(ccc2s1)OCC(=O)N3C (racemic) [Example 46, (RS)-9-methyl-2-[2-oxo-5-(prop-1-yn-1-yl)imidazolidin-1-yl]-7H-thiazolo[4′,5′:3,4]benz[1,2-b][1,4]oxazin-8(9H)-one] |  |  | * * | ≥ 1000 | 100 to 1000 |  |
| CC#CC1CNC(=O)N1c1nc2c3c(ccc2s1)OCCN3CCOC (racemic) [Example 42, (RS)-1-[9-(2-methoxyethyl)-8,9-dihydro-7H-thiazolo[4′,5′:3,4]benz[1,2-b][1,4]oxazin-2-yl]-5-(prop-1-yn-1-yl)imidazolidin-2-one] |  |  | * * * | ≥ 1000 | 100 to 1000 |  |
| CC#CC1CNC(=O)N1c1nc2c(ccc3ncccc32)s1 (single isomer, unassigned) [Example 36, 5-(prop-1-yn-1-yl)-1-(thiazolo[4,5-f]quinolin-2-yl)imidazolidin-2-one] |  |  | * * | 100 to 1000 | 100 to 1000 |  |
| CC#C[C@H]1[C@H]([C@@H](C)O)NC(=O)N1c1nc2c3c(ccc2s1)OCC3 [Example 81, (4R,5S)-1-(7,8-dihydrobenzofuro[4,5-d]thiazol-2-yl)-4-((R)-1-hydroxyethyl)-5-(prop-1-yn-1-yl)imidazolidin-2-one] |  |  |  | ≥ 1000 | ≥ 1000 | 100 to 1000 |
| CC#C[C@H]1[C@H](CN(C)C)NC(=O)N1c1nc2c3c(ccc2s1)OCC3 (single isomer, unassigned) [Example 70, trans-1-(7,8-dihydrobenzofuro[4,5-d]thiazol-2-yl)-4-[(dimethylamino)methyl]-5-(prop-1-yn-1-yl)imidazolidin-2-one] |  |  |  | ≥ 1000 | ≥ 1000 | 100 to 1000 |
| CC#C[C@H]1[C@H](C(C)C)NC(=O)N1c1nc2c3c(ccc2s1)OCC3 [Example 67, (4S,5S)-1-(7,8-dihydrobenzofuro[4,5-d]thiazol-2-yl)-4-isopropyl-5-(prop-1-yn-1-yl)imidazolidin-2-one] |  |  |  | ≥ 1000 | ≥ 1000 | ≥ 1000 |
| CN(C)CC#CC1CNC(=O)N1c1nc2c3c(ccc2s1)OCC3 (racemic) [Example 18, (RS)-1-(7,8-dihydrobenzofuro[4,5-d]thiazol-2-yl)-5-[3-(dimethylamino)prop-1-yn-1-yl]imidazolidin-2-one] |  |  | * * | ≥ 1000 | 100 to 1000 |  |
| CC#C[C@@H]1[C@H](COC)NC(=O)N1c1nc2c3c(ccc2s1)OCC3 (single isomer, unassigned) [Example 75, cis-1-(7,8-dihydrobenzofuro[4,5-d]thiazol-2-yl)-4-(methoxymethyl)-5-(prop-1-yn-1-yl)imidazolidin-2-one] |  |  |  | ≥ 1000 | ≥ 1000 | 100 to 1000 |
| CC#C[C@H]1[C@H](CO)NC(=O)N1c1nc2c3c(ccc2s1)OCCO3 (single isomer, unassigned) [Example 66, trans-1-(7,8-dihydro-[1,4]dioxino[2′,3′:5,6]benz[1,2-d]thiazol-2-yl)-4-(hydroxymethyl)-5-(prop-1-yn-1-yl)imidazolidin-2-one] |  |  |  | ≥ 1000 | ≥ 1000 | 100 to 1000 |
| CC#CC1CNC(=O)N1c1nc2c(ccc3[nH]ncc32)s1 (racemic) [Example 50, (RS)-5-(prop-1-yn-1-yl)-1-(6H-thiazolo[4,5-e]indazol-2-yl)imidazolidin-2-one] |  |  | * * | ≥ 1000 | ≥ 1000 |  |
| COCC#CC1CNC(=O)N1c1nc2c3c(ccc2s1)OCC3 (racemic) [Example 20, (RS)-1-(7,8-dihydrobenzofuro[4,5-d]thiazol-2-yl)-5-(3-methoxyprop-1-yn-1-yl)imidazolidin-2-one] |  |  |  | ≥ 1000 | ≥ 1000 | 100 to 1000 |
| CC#C[C@@H]1[C@H](COC)NC(=O)N1c1nc2c3c(ccc2s1)OCC3 (single isomer, unassigned) [Example 74, cis-1-(7,8-dihydrobenzofuro[4,5-d]thiazol-2-yl)-4-(methoxymethyl)-5-(prop-1-yn-1-yl)imidazolidin-2-one] |  |  | * * * | 100 to 1000 | 100 to 1000 |  |
| CC#CC1N(c2nc3c4c(ccc3s2)OCC4)C(=O)NC1(C)C (racemic) [Example 54, (RS)-1-(7,8-dihydrobenzofuro[4,5-d]thiazol-2-yl)-4,4-dimethyl-5-(prop-1-yn-1-yl)imidazolidin-2-one] |  |  | * * | ≥ 1000 | ≥ 1000 |  |
| CC#CC1CNC(=O)N1c1nc2c3c(ccc2s1)OCCO3 (racemic) [Example 55, (RS)-1-(7,8-dihydro-[1,4]dioxyno[2′,3′:5,6]benzo[1,2-d]thiazol-2-yl)-5-(prop-1-yn-1-yl)imidazolidin-2-one] |  |  | * * * | 100 to 1000 | 100 to 1000 |  |
